ChEMBL document CHEMBL1137511, “Identification of a series of novel derivatives as potent HCV inhibitors by a ligand-based virtual screening optimized procedure” (Bioorg Med Chem, 2007)

test: Inhibition of HCV genotype 1 polymerase; parameters: species or system Hepacivirus hominis

| IC50 | Structure (SMILES) |
| --- | --- |
| 9 nM | CC(C)CCn1c(=O)c(C2=NS(=O)(=O)c3cc(NS(N)(=O)=O)ccc3N2)c(O)c2cccnc21 |
| 16500 nM | CC(Nn1c(=O)c(C2=NS(=O)(=O)c3ccccc3N2)c(O)c2ccccc21)c1ccccc1 (stereo not given) |
| 72 nM | C#CCOC(=O)NS(=O)(=O)Nc1ccc2c(c1)S(=O)(=O)N=C(c1c(O)c3cccnc3n(CCC(C)C)c1=O)N2 |
| 5000 nM | CC(C)CCn1c(=O)c(C2=NS(=O)(=O)c3cc(OCC(=O)OC(C)(C)C)ccc3N2)c(O)c2cccnc21 |
| 22 nM | CCCCS(=O)(=O)Nc1ccc2c(c1)S(=O)(=O)NC(c1c(O)c3cccnc3n(CCC(C)C)c1=O)=N2 |
| 278 nM | O=c1c(C2=NS(=O)(=O)c3ccccc3N2)c(O)c2ccccc2n1NCC1CCC1 |
| 6200 nM | O=c1c(C2=NS(=O)(=O)c3cccc(Br)c3N2)c(O)c2cccnc2n1Cc1ccccc1 |
| 107 nM | CC(C)CCn1c(=O)c(C2=NS(=O)(=O)c3cc(NS(=O)(=O)NCCO)ccc3N2)c(O)c2cccnc21 |
| 810 nM | CC(C)CCn1c(=O)c(C2=NS(=O)(=O)c3ccccc3N2)c(O)c2cccnc21 |
| 747 nM | O=c1c(C2=NS(=O)(=O)c3ccccc3N2)c(O)c2ccccc2n1NCC1CCCC1 |
| 35800 nM | O=c1c(C2=NS(=O)(=O)c3ccccc3N2)c(O)c2ccccc2n1NCc1nccs1 |
| 46 nM | CC(C)CCn1c(=O)c(C2=NS(=O)(=O)c3cc(OCC(N)=O)ccc3N2)c(O)c2cccnc21 |
| 1890 nM | CCCC(CC)Nn1c(=O)c(C2=NS(=O)(=O)c3ccccc3N2)c(O)c2ccccc21 (stereo not given) |
| 6720 nM | O=c1c(C2=NS(=O)(=O)c3ccccc3N2)c(O)c2ccccc2n1NCc1ccccc1Br |
| 43 nM | CC(C)CCn1c(=O)c(C2=NS(=O)(=O)c3cc(NS(=O)(=O)Nc4cccc(C(=O)NCC(N)=O)c4)ccc3N2)c(O)c2cccnc21 |
